US10758534B2 (Vertex Pharmaceuticals Incorporated, priority 2014, dated 2020)

What follows are compounds tested against T1, F508del (Homo sapiens, UniProt P13569, DEL508-508) (assay: Protocol 2: FRET membrane potential optical assay (VIPR), identification of correction compounds). Conditions: F508del CFTR modulator activity; compounds of Table 1.
T1 construct: expressed in transfected cells
Format: cell-based
From the text: Membrane potential optical methods for assaying F508del modulation properties of compounds.
These voltage sensitive assays are based on the change in fluorescence resonant energy transfer (FRET) between the membrane-soluble, voltage-sensitive dye, DiSBAC2(3), and a fluorescent phospholipid, CC2-DMPE, which is attached to the outer leaflet of the plasma membrane and acts as a FRET donor. Changes in membrane potential (Vm) cause the negatively charged DiSBAC2(3) to redistribute across the plasma membrane and the amount of energy transfer from CC2-DMPE changes accordingly. The changes in fluorescence emission were monitored using VIPR™ II, which is an integrated liquid handler and fluorescent detector designed to conduct cell-based screens in 96- or 384-well microtiter plates.
To identify small molecules that correct the trafficking defect associated with F508del; a single-addition HTS assay format was developed. The cells were incubated in serum-free medium for 16 hrs at 37° C. in the presence or absence (negative control) of test compound. As a positive control, cells plated in 384-well plates were incubated for 16 hrs at 27° C. to “temperature-correct” F508del. The cells were subsequently rinsed 3× with Krebs Ringers solution and loaded with the voltage-sensitive dyes. To activate F508del, 10 μM forskolin and the CFTR potentiator, genistein (20 μM), were added along with Cl^−-free medium to each well. The addition of Cl^−-free medium promoted Cl^− efflux in response to F508del activation and the resulting membrane depolarization was optically monitored using the FRET-based voltage-sensor dyes.
• Bath Solution #1: (in mM) NaCl 160, KCl 4.5, CaCl2 2, MgCl2 1, HEPES 10, pH 7.4 with NaOH. • Chloride-free bath solution: Chloride salts in Bath Solution #1 (above) are substituted with gluconate salts. • CC2-DMPE: Prepared as a 10 mM stock solution in DMSO and stored at −20° C. • DiSBAC2(3): Prepared as a 10 mM stock in DMSO and stored at −20° C. Cell Culture
NIH3T3 mouse fibroblasts stably expressing F508del are used for optical measurements of membrane potential. The cells are maintained at 37° C. in 5% CO2 and 90% humidity in Dulbecco's modified Eagle's medium supplemented with 2 mM glutamine, 10% fetal bovine serum, 1×NEAA, β-ME, 1× pen/strep, and 25 mM HEPES in 175 cm^2 culture flasks. For all optical assays, the cells were seeded at 30,000/well in 384-well matrigel-coated plates and cultured for 2 hrs at 37° C. before culturing at 27° C. for 24 hrs for the potentiator assay. For the correction assays, the cells are cultured at 27° C. or 37° C. with and without compounds for 16-24 hours.

T1 sequence (P13569 with tags, fused parts or gaps DEL508-508): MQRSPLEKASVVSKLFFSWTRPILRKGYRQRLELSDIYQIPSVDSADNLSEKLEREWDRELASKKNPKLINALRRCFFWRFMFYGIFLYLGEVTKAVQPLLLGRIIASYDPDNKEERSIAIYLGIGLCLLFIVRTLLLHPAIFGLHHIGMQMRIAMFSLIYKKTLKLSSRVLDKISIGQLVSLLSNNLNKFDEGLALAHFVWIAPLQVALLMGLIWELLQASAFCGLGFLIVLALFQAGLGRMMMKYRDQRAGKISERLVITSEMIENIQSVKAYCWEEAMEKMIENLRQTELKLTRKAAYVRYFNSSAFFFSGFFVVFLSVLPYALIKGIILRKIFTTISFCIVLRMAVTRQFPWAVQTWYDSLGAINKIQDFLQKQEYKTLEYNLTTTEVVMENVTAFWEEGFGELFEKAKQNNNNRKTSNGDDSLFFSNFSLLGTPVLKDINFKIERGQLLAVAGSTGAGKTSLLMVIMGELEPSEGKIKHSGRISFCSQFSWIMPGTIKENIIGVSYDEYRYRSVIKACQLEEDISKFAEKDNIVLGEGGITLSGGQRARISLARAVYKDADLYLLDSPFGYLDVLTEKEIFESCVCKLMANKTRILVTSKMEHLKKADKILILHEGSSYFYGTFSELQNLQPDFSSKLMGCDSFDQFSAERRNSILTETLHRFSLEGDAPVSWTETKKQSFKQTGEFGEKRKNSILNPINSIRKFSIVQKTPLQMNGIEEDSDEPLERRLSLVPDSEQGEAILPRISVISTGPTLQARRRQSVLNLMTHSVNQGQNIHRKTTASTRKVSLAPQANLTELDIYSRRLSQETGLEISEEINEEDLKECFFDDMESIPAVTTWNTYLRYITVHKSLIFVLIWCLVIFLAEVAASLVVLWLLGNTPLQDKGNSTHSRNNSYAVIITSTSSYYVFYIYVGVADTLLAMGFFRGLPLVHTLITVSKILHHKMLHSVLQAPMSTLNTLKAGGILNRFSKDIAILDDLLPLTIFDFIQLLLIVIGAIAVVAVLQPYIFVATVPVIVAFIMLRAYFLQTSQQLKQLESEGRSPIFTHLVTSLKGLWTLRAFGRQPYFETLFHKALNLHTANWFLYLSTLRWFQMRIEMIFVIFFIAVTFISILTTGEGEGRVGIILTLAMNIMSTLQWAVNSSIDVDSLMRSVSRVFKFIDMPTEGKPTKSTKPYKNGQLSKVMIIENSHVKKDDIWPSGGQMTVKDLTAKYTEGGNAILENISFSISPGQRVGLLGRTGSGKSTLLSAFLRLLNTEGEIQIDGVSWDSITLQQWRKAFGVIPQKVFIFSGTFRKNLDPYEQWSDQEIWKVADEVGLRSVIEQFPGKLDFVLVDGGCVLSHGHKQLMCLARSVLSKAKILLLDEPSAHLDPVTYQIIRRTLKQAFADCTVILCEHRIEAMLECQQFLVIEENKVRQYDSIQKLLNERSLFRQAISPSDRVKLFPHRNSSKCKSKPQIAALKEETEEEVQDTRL

Row | SMILES | EC30
1 | CC(C)COc1cc(F)cc(-c2ccc(C(=O)NS(=O)(=O)c3cccc(N)n3)c(N3CC(C)CC34CCC4)n2)c1 (single isomer, unassigned) [Compound 2552, N-[(6-amino-2-pyridyl)sulfonyl]-6-(3-fluoro-5-isobutoxy-phenyl)-2-(6-methyl-8-azaspiro[3.4]octa N-8-yl)pyridine-3-carboxamide] | +++ (“+++” means <3 uM)
2 | CC(C)(C)c1ccc(C(=O)NS(=O)(=O)c2cccc(N)n2)c(N2CCC(C3CC3)C2(C)C)n1 (single isomer, unassigned) [Compound 2577, N-[(6-amino-2-pyridyl)sulfonyl]-6-tert-butyl-2-(3-cyclopropyl-2,2-dimethyl-pyrrolidin-1-yl)pyridine-3-carboxamide] | +++ (“+++” means <3 uM)

Same assay, conditions: F508del CFTR modulator activity; compounds of Table 1; read-out: EC30

Row | SMILES | EC30 [µM]
3 | C[C@@H]1CN(c2nc(C3CCCCO3)ccc2C(=O)NS(=O)(=O)c2cccnc2N)C(C)(C)C1 (single isomer, unassigned) [Compound 2672] | < 3
4 | CC1CN(c2ncccc2C(=O)NS(=O)(=O)c2cccc(N(C)C(C)C)n2)C(C)(C)C1 (single isomer, unassigned) [Compound 2724] | < 3
5 | CC1CN(c2ncccc2C(=O)NS(=O)(=O)c2cccc(OC3CCC[C@@H]3C)n2)C(C)(C)C1 (stereo in doubt) [Compound 2109, N—[[6-[(1S,2S)-2-methylcyclopentoxy]-2-pyridyl]sulfonyl]-2-(2,2,4-trimethylpyrrolidin-1-yl)pyridine-3-carboxamide] | < 3

Now from value to compound:

Row | EC30 [µM] | SMILES
6 | 3 to 10 | Nc1cccc(S(=O)(=O)NC(=O)c2cccnc2N2CCCC(c3ccccc3)C2)n1 (single isomer, unassigned) [Compound 2615]
7 | < 3 | C[C@@H]1CN(c2nc(C(C)(C)C)c(C(O)C(O)C3CCCC3)cc2C(=O)NS(=O)(=O)c2cccc(N)n2)C(C)(C)C1 (single isomer, unassigned) [Compound 2661]

Same assay, conditions: Table 3; compounds of Table 1 as modulators of CFTR activity; protocol not stated

Row | SMILES | EC30
8 | Cc1cccc(C)c1Cn1c(C(=O)NS(=O)(=O)c2ccccc2)cc2ccccc21 [Compound 2, N-(benzenesulfonyl)-1-[(2,6-dimethylphenyl)methyl]indole-2-carboxamide] | +++ (“+++” means <3 uM)
9 | CC(C)(C)c1cc(C(=O)NS(=O)(=O)c2ccccc2)n(Cc2cc(F)ccc2C(F)(F)F)n1 [Compound 3, 3-(tert-butyl)-1-(5-fluoro-2-(trifluoromethyl)benzyl)-N-(phenylsulfonyl)-1H-pyrazole-5-carboxamide] | +++ (“+++” means <3 uM)
10 | COC(=O)C(C(=O)c1cc(C(C)(C)C)nn1Cc1c(C)cccc1C)S(=O)(=O)c1ccccc1 (stereo not shown) [Compound 4, Methyl 2-(benzenesulfonyl)-3-[5-tert-butyl-2-[(2,6-dimethylphenyl)methyl]pyrazol-3-yl]-3-oxo-propanoate] | + (“+” means greater than 10 uM)
11 | Cc1cc(C)c(CN2Cc3ccccc3C2C(=O)NS(=O)(=O)c2ccccc2)c(C)c1 (stereo not shown) [Compound 6, N-(benzenesulfonyl)-2-[(2,4,6-trimethylphenyl)methyl]isoindoline-1-carboxamide] | +++ (“+++” means <3 uM)
12 | Cc1cc(C)c(CCn2nc(C(C)(C)C)cc2C(=O)NS(=O)(=O)c2cccc(N)c2)c(C)c1 [Compound 7, N-(3-aminophenyl)sulfonyl-5-tert-butyl-2-[2-(2,4,6-trimethylphenyl)ethyl]pyrazole-3-carboxamide] | +++ (“+++” means <3 uM)
13 | Cc1cc(C)c(Oc2nc(-c3cccc(OCC(C)C)c3)ccc2C(=O)NS(=O)(=O)c2cccc(N)n2)c(C)c1 [Compound 8, N-[(6-amino-2-pyridyl)sulfonyl]-6-(3-isobutoxyphenyl)-2-(2,4,6-trimethylphenoxy)pyridine-3-carboxamide] | +++ (“+++” means <3 uM)
14 | COc1cccc(S(=O)(=O)NC(=O)C2c3ccccc3CN2Cc2c(C)cc(C)cc2C)c1 (stereo not shown) [Compound 16, N-(3-methoxyphenyl)sulfonyl-2-[(2,4,6-trimethylphenyl)methyl]isoindoline-1-carboxamide] | +++ (“+++” means <3 uM)
15 | COc1ncccc1S(=O)(=O)NC(=O)c1cc2ccccc2n1Cc1c(C)cc(C)cc1C [Compound 18, N-[(2-methoxy-3-pyridyl)sulfonyl]-1-[(2,4,6-trimethylphenyl)methyl]indole-2-carboxamide] | +++ (“+++” means <3 uM)
16 | Cc1cc(C)c(Cn2nc(C(C)(C)C)c(C)c2C(=O)NS(=O)(=O)c2cccc(N)c2)c(C)c1 [Compound 20, N-(3-aminophenyl)sulfonyl-5-tert-butyl-4-methyl-2-[(2,4,6-trimethylphenyl)methyl]pyrazole-3-carboxamide] | +++ (“+++” means <3 uM)
17 | CCOC(=O)Cc1ccc(-c2cc(C(=O)NS(=O)(=O)c3ccccc3)n(Cc3c(C)cccc3C)n2)cc1 [Compound 21, ethyl 2-[4-[5-(benzenesulfonylcarbamoyl)-1-[(2,6-dimethylphenyl)methyl]pyrazol-3-yl]phenyl]acetate] | +++ (“+++” means <3 uM)

Second part, the compound after the results:

Row | EC30 | SMILES
18 | +++ (“+++” means <3 uM) | Cc1cc(C)c(Oc2nc(Cc3ccccc3)ccc2C(=O)NS(=O)(=O)c2cccc(N)n2)c(C)c1 [Compound 1, N-[(6-amino-2-pyridyl)sulfonyl]-6-benzyl-2-(2,4,6-trimethylphenoxy)pyridine-3-carboxamide]
19 | ++ (“++” means between 3 uM and 10 uM) | Cc1ccc(-c2nc(C(C)(C)C)ccc2C(=O)NS(=O)(=O)c2cccc(N)c2)c(C)c1 [Compound 5, N-(3-aminophenyl)sulfonyl-6-tert-butyl-2-(2,4-dimethylphenyl)pyridine-3-carboxamide]
20 | +++ (“+++” means <3 uM) | Cc1cc(C)c(Cn2c(C(=O)NS(=O)(=O)c3cccc(N)c3)cc3ccc(Cl)cc32)c(C)c1 [Compound 9, N-(3-aminophenyl)sulfonyl-6-chloro-1-[(2,4,6-trimethylphenyl)methyl]indole-2-carboxamide]
21 | +++ (“+++” means <3 uM) | Cc1cc(C)c(Cn2c(C(=O)NS(=O)(=O)c3ccccc3)cc3ccc(Cl)cc32)c(C)c1 [Compound 10, N-(benzenesulfonyl)-6-chloro-1-[(2,4,6-trimethylphenyl)methyl]indole-2-carboxamide]
22 | +++ (“+++” means <3 uM) | Cc1cc(C)c(Oc2nc(C(C)(C)C)ccc2C(=O)NS(=O)(=O)c2ccc(N)cc2)c(C)c1 [Compound 11, N-(4-aminophenyl)sulfonyl-6-tert-butyl-2-(2,4,6-trimethylphenoxy)pyridine-3-carboxamide]
23 | +++ (“+++” means <3 uM) | Cc1cc(C)c(Cn2c(C(=O)NS(=O)(=O)c3ccccc3)cc3ccc(C)cc32)c(C)c1 [Compound 12, N-(benzenesulfonyl)-6-methyl-1-[(2,4,6-trimethylphenyl)methyl]indole-2-carboxamide]
24 | ++ (“++” means between 3 uM and 10 uM) | Cc1cc(C)c(Oc2nc(C)ccc2C(=O)NS(=O)(=O)c2cccc(N)c2)c(C)c1 [Compound 13, N-(3-aminophenyl)sulfonyl-6-methyl-2-(2,4,6-trimethylphenoxy)pyridine-3-carboxamide]
25 | +++ (“+++” means <3 uM) | Cc1cc(C)c(Oc2nc(-c3ccc4c(c3)OCCCO4)ccc2C(=O)NS(=O)(=O)c2cccc(N)n2)c(C)c1 [Compound 14, N-[(6-amino-2-pyridyl)sulfonyl]-6-(3,4-dihydro-2H-1,5-benzodioxepin-7-yl)-2-(2,4,6-trimethylphenoxy)pyridine-3-carboxamide]
26 | +++ (“+++” means <3 uM) | Cc1ccc(Oc2nc3c(cc2C(=O)NS(=O)(=O)c2cccc(N)n2)CCCC3(C)C)c(C)c1 [Compound 15, N-[(6-amino-2-pyridyl)sulfonyl]-2-(2,4-dimethylphenoxy)-8,8-dimethyl-6,7-dihydro-5H-quinoline-3-carboxamide]
27 | +++ (“+++” means <3 uM) | COc1ccc(-c2ccc(C(=O)NS(=O)(=O)c3cccc(N)n3)c(Oc3c(C)cc(C)cc3C)n2)cc1 [Compound 17, N-[(6-amino-2-pyridyl)sulfonyl]-6-(4-methoxyphenyl)-2-(2,4,6-trimethylphenoxy)pyridine-3-carboxamide]
28 | +++ (“+++” means <3 uM) | Cc1cc(C)c(Cc2ccc(C(C)(C)C)nc2C(=O)NS(=O)(=O)c2ccccc2)c(C)c1 [Compound 22, N-(benzenesulfonyl)-6-tert-butyl-3-[(2,4,6-trimethylphenyl)methyl]pyridine-2-carboxamide]
